# Test system: L. donovani promastigotes
# Assay: Morphological analysis by transmission EM
# Type: cell-based, Leishmania donovani
# Conditions: two times EC50, 6 h
# Description: Profound morphological changes were evident in parasites treated with compounds from this series. To gain additional insight into these compound-induced changes, L. donovani promastigotes were treated with 7 at a concentration equivalent to two times the established EC50 value for 6 h before analysis by transmission EM. […] In addition, there was a significant accumulation of intracellular vesicles within treated parasites (SI Appendix, Fig. S8). Based on our target identification studies, we reasoned that an inability to recycle key proteins via the proteasome left these parasites overcome by their own waste protein products. […]
# 95°C for 3 min; 40 cycles of 95°C for 20 s; then 60 °C for 20 s. […] Relative quantification in the tetracycline-induced cell lines were normalized to the un-induced cell line using the […]
# Cultures of bloodstream T. brucei and L. donovani promastigotes at starting cell densities of 5 x 105 were incubated with concentrations of compound 7 equivalent to 5x their respective EC50 values. […] After washing, cell densities were adjusted to 5 × 10^5 cells mL, re-suspended in 500 µL of PBS containing 50 µg/mL propidium iodide, 50 µg/mL RNase and 0.1% Triton X-100, incubated at room temperature for 20 min in the dark and analysed using FACSort analytical flow cytometer using Cellquest software (BD Biosciences). j. […]
structure (smiles),measurement,value
O=C(Nc1ccc(F)c(-c2cn3nc(-c4ccccc4)cnc3n2)c1)N1CCCC1 [Compound 7],morphological changes (transmission EM),swelling of promastigotes
